In patent publication US12156873B2, “Composition for treating ocular hyperemia and a method for treating ocular hyperemia with the same” (ADS Therapeutics LLC, priority 2018, dated 2024):

Assays:
Assay type in all cases: in vivo
[1] = system: Ocular hyperemia patients; assay: Ocular hyperemia patients treated topically with emulsion formulations BID for 2 weeks, hyperemia graded from eye pictures
Experimental: Ocular hyperemia patients with hyperemia grade >2 (0-4, five-point scale; 0 being clear of hyperemia and 4 being of severe hyperemia) are selected for treatment with 4 emulsion formulations. Each group has about 20 patients. The patients are assigned to the groups in a way to make sure the base line average grade is similar among the groups. The formulations are dosed twice a day (BID) for 2 weeks and the patients are further followed up for 4 weeks. The formulations are administered topically by a physician on the day of visits or by the patient between visits. Patients are evaluated on day 1, week 1, and 2, before and after dosing. After the stop of dosing, patients are further followed up at 4 and 6 weeks.
The effect on ocular hyperemia is evaluated by taking pictures of the eye. […] The tolerability of the formulations is also evaluated with standard eye examinations commonly used for such assessment. The efficacy and tolerability data are analyzed by independent statisticians.

[2] = system: pterygium patients; assay: Phase 2a clinical trial stage 2: 0.2% nintedanib eye drop vs vehicle, 28 days TID, pterygium vascularity graded from photographs
Experimental: (§1) Nintedanib was formulated into an eye drop and tested in pterygium patients in a Phase 2a clinical trial to evaluate the safety and efficacy of nintedanib. The key efficacy endpoint is effects on pterygium vascularity.
In stage 2, the safety, tolerability and efficacy of the 0.2% formulation were evaluated in a randomized, double-masked, vehicle-controlled, parallel study with 28 days TID repeat ocular dosing of vehicle and 0.2% nintedanib. The patients were further followed up by 20 weeks of post-dosing observation. Ophthalmic and physical examinations were performed at screening, Day 1 and Week 2, 4, 8, 16, and 24. External photograph of the pterygium eye was taken using a digital camera and the pterygium vascularity was graded from these images at an independent image reading center. The primary objective is to evaluate ocular and systemic safety of nintedanib in pterygium patients that have moderate to severe pterygium vascularity. The secondary objective is to assess whether the formulation is efficacious in reducing pterygium vascularity.
A total of 50 patients were enrolled and randomized in a 1:1 treatment allocation to receive either nintedanib or vehicle. The final analysis was performed after study completion. The O'Brien-Fleming group-sequential method was used for a multiple-comparison adjustment of p-values for efficacy. For the final analysis, a 2-sided test with p-value ≤0.048 is considered statistically significant for all between and within treatment comparisons.

[3] = system: pterygium patients; assay: Phase 2a clinical trial stage 1: single dose escalating safety, tolerability and pharmacokinetics study; details: single dose 0.02%, 0.05%, 0.2% eye drop
Experimental: as §1
The clinic trial was conducted in two stages. In stage 1, the safety, tolerability and pharmacokinetics were evaluated in a single dose escalating study. Three dose cohorts with 8 patients in each were evaluated. Cohort 1 began at the lowest concentration of 0.02% nintedanib (weight percent based on the total weight of the eye drop), followed by an increasing dose to 0.05% for Cohort 2 and then to 0.2% for Cohort 3.

[4] = Day 1 before dosing (baseline), 0-4 five-point scale, BID topical
[5] = Wee 4 (follow-up, 2 weeks after stop of dosing), 0-4 scale
[6] = Week 6 (follow-up, 4 weeks after stop of dosing), 0-4 scale

Brc1c(NC2=NCCN2)ccc2nccnc12 [Brimonidine, (5-Bromoquinoxalin-6-yl)-(4,5-dihydro-1H-imidazol-2-yl)-amine]
Average Hyperemia Grade ([1]; Day 1 2 h post, 0-4 scale): 2 | Average Hyperemia Grade ([1]; Day 1 6 h post, 0-4 scale): 3 | Average Hyperemia Grade [1, 4]: 3 | Average Hyperemia Grade [1, 5]: 3 | Average Hyperemia Grade ([1]; Week 1 2 h post, 0-4 scale): 2 | Average Hyperemia Grade ([1]; Week 1 before, 0-4 scale): 3 | Average Hyperemia Grade ([1]; Week 2 2 h post, 0-4 scale): 2 | Average Hyperemia Grade ([1]; Week 2 before, 0-4 scale): 3 | Average Hyperemia Grade [1, 6]: 3 | duration of effect on hyperemia grade at each of the visits ([1]; after dosing): 2 to 4 h | hyperemia grade after dosing ([1]; day 1, week 1 and 2): reduced immediately after dosing | hyperemia grade after stop of treatments ([1]; week 4 and 6): the same as the baseline

COC(=O)c1ccc2c(c1)NC(=O)/C2=C(\Nc1ccc(N(C)C(=O)CN2CCN(C)CC2)cc1)c1ccccc1 [Nintedanib, (Z)-3-(1-(4-(N-((4-methyl-piperazin-1-yl)-methylcarbonyl)-N-methyl-amino)-phenylamino)-1-phenyl-methylene]-6-methoxycarbonyl-2-indolinone]
safety and tolerability ([2]; 0.2% eye drop, 28 days TID): excellent with no serious adverse events | Mean grade Difference, nintedanib vs vehicle (pterygium vascularity) ([2]; Day 1 (baseline)): −0.15 | Mean change from baseline Difference, nintedanib vs vehicle (pterygium vascularity) ([2]; Week 2): −0.72 | Mean grade Difference, nintedanib vs vehicle (pterygium vascularity) ([2]; Week 2): −0.87 | Mean change from baseline Difference, nintedanib vs vehicle (pterygium vascularity) ([2]; Week 4 (end of dosing)): −0.76 | Mean grade Difference, nintedanib vs vehicle (pterygium vascularity) ([2]; Week 4 (end of dosing)): −0.91 | Mean change from baseline Difference, nintedanib vs vehicle (pterygium vascularity) ([2]; Week 8): −0.41 | Mean grade Difference, nintedanib vs vehicle (pterygium vascularity) ([2]; Week 8): −0.53 | Mean change from baseline Difference, nintedanib vs vehicle (pterygium vascularity) ([2]; Week 16): −0.59 | Mean grade Difference, nintedanib vs vehicle (pterygium vascularity) ([2]; Week 16): −0.7 | Mean change from baseline Difference, nintedanib vs vehicle (pterygium vascularity) ([2]; Week 24 (end of study)): −0.17 | Mean grade Difference, nintedanib vs vehicle (pterygium vascularity) ([2]; Week 24 (end of study)): −0.31 | persistence of effect on pterygium vascularity ([2]; after 28 days TID dosing): maintained through Week 16 | effect on pterygium vascularity ([2]; by Week 2): highly significant | safety [3]: No safety issues were found at all doses | Average Hyperemia Grade ([1]; Day 1 2 h post, 0-4 scale): 3 | Average Hyperemia Grade ([1]; Day 1 6 h post, 0-4 scale): 3 | Average Hyperemia Grade [1, 4]: 3 | Average Hyperemia Grade [1, 5]: 2.5 | Average Hyperemia Grade ([1]; Week 1 2 h post, 0-4 scale): 2 | Average Hyperemia Grade ([1]; Week 1 before, 0-4 scale): 2 | Average Hyperemia Grade ([1]; Week 2 2 h post, 0-4 scale): 2 | Average Hyperemia Grade ([1]; Week 2 before, 0-4 scale): 2 | Average Hyperemia Grade [1, 6]: 3 | time the grade reduction remained significant after the stop of dosing ([1]; after 2 weeks BID dosing): 2 weeks | hyperemia grade, drug effect on day 1 ([1]; day 1, comparing to the baseline): did not change significantly | hyperemia grade reduction from baseline ([1]; week 1 and 2): about 1 grade
